In patent publication US6586006B2, “Solid delivery systems for controlled release of molecules incorporated therein and methods of making same” (Elan Drug Delivery Limited, priority 1994, dated 2003):
“Also recorded” adds a separate entry of the source. Values belong to the molecule of their own block, whether it stands above or below them.

Tests used:
[1] = Encapsulation of organic substances in α-D-glucose pentaacetate glass; assay type: physicochemical
Protocol: Excellent recoveries were obtained in the encapsulation of several organic substances in the glasses. Glass discs of α-D-Glucose pentaacetate containing 2% w/w of the materials listed in Table 4 were formed by melting and quenching and then ground. Photochrome II is 5-chloro-1,3-dihydro-1,3,3-trimethyl spiro[2H-indole-2,3′-[3H]-napth[2,1-b] [1,4]-oxazine. The encapsulated materials were extracted by the suitable solvent such as methanol or water.
Pesticide-like Oxadiazon was dissolved easily in the melt of this glass at about 15% w/w without problem.

[2] = Resistance of glasses to devitrification on exposure to relative humidity; assay type: physicochemical
Protocol: Glasses were made by evaporating DCM on a hotplate set at 65° C. from a 25% solutions of TOAC (50% solutions often deposited crystals in the pipette tip). Drying was carried out for 2 hr to be certain of complete dryness. Uniform glasses were produced by using an Eppendorf-type pipette to deliver 100 μl to a slide recently placed on the hotplate and then removing about 50 μl by using the clear/expel volume of the pipette.
XPDO was therefore incorporated into a TOAC glass by dissolving both crystalline TOAC and XPDO in DCM and evaporating the solvent at 70° C. on a hotplate. XPDO was used in proportions of 10% and 20% of total solids in the final TOAC glass.
(§1) The resulting glasses were tested for their utility as controlled release matrices in two ways. First, they were assessed for their ability to resist devitrification on exposure to high RH at RT. Second, they were immersed in water or phosphate-buffered saline (PBS) to study their solubility and rate of erosion by surface recrystallization.

[3] = Glass transition temperature (Tg) by thermal analysis (DSC); assay type: physicochemical
Excerpt: In general, the tendency to crystallize, from a cooling melt or with reducing solvent, is low. Both devitrification and the fluidity of the melt at temperatures close to Tg, can be controlled by modifiers such as other derivative sugars and certain organic actives. The following two tables, generated as described in the Examples presented below, provide Tg and melting temperature data for a variety of HDCs suitable for use, either alone, or in a composite glass, herein.
Dissolution of synthetic corticosteroid XPDO (described below) into a TOAC melt and quenching to form the vitreous solid dose delivery system was achieved. By looking at the release of MB9 into aqueous solution, these experiments tested the compatibility of the steroid within the glass, subsequent recovery of the steroid and studied the effect that XPDO has on the properties of the delivery system formed looking at the release of MB9 into aqueous solution. TOAC (3.21 g) was pre-melted at 150° C., before being quenched to glass. The glass was finely ground with XPDO (0.15 g) before being remelted. The clear melt was again quenched to yield the composite HDC/active glass. Thermal analysis was carried out on a Rheometric Scientific Differential Scanning Calorimeter (DSC) at a heating rate of 10°/min under a nitrogen atmosphere. The following samples were prepared:
Studies were performed using the synthetic corticosteroid XPDO dissolved in DCM. The solution was spray dried in a Buchi B-191 spray drier, using an inlet temperature of 40° C. […] XPDO was incorporated at 20 wt %. The powder was completely amorphous as confirmed by thermal analysis (Tg=46° C.).

[4] = tested on: African Green monkey kidney-derived cell line Vero; assay: In vitro toxicity of TOAC in Vero cell culture; assay type: cell-based; conditions: saturated solution in 10-fold serial dilution or powder added to medium; week of culture
Protocol: A saturated solution of TOAC in deionised distilled water (0.42 g in 20 mls) was tested for toxicity in vitro using the African Green monkey kidney-derived cell line Vero, in either a 10-fold serial dilution or by adding the TOAC powder directly to the tissue culture medium.

[5] = Controlled release of encapsulated MB9 dye from HDC glass beads/discs; assay type: physicochemical
Protocol: In the following experiments, the delivery system was preformulated, whether as a single material, or as a mixed composition. This was carried out by intimately grinding the component HDCs together, followed by careful, controlled melting in a furnace, between 120-140° C. and with normal atmosphere to form melts. The melts were quenched to glass by pouring over a brass block. This glass was then finely ground.
MB9 dye (1 or 5 wt %) was mixed with the ground glass prior to re-melting at 140° C. The melt was quenched to form small glass beads (2.5 mm diameter) which were used in controlled release experiments.
Controlled release of encapsulated dye was monitored by suspending three such beads in 25 or 50 ml of deionized water or PBS solution at ambient temperatures (27-30° C.) or at 37° C., as indicated. The media were undisturbed, except for periodic stirring and were replaced at set intervals with fresh media (generally at 72 hr intervals). Both single HDC glasses and composite HDC glasses were formed. […] The use of other HDCs as glass modifiers in the composite HDC formulations enable the tailoring of the glasses formed to yield the release characteristics desired.
In FIG. 8, the results were obtained from TOAC glass discs (6 mm×2.5 mm) with MB9 dye evenly dispersed therein at 2 wt %. Release was controlled at 25° C. with gentle stirring and media changes at regular intervals. Note the linear release of MB9 dye over a 55 day period. The results presented in FIG. 8 indicate that a pure HDC vitreous delivery vehicle system gives zero-order release rates of guest substances. The results presented in FIGS. 9-14 show variation on release rates by changing the ratios of different HDCs in the delivery systems, changing the carbohydrate backbone length and by changing the nature of the derivative on the carbohydrate backbone. In each instance it is clear that the HDC delivery systems allow a wide range of release rates that can be tailored to the guest substance and the delivery thereof.

[6] = Devitrification / recrystallization of glasses immersed in liquid water; assay type: physicochemical
Protocol: However, when immersed in liquid water, the surface of the glass slowly recrystallized so that microscopic pyramidal crystals of TOAC could be seen under an inverted microscope within 15-30 min of addition of water. Crystallization was slowly progressive and within another few minutes small clusters of the typical needle shaped crystals of XPDO appeared. Since neither the needle shaped XPDO crystals nor the pyramidal TOAC crystals were adherent to the underlying glass, they were washed away readily to reveal a fresh glass surface for further slow dissolution. The complete exclusion of XPDO from the TOAC crystals ensured that this molecule, previously incorporated in the glassy TOAC matrix, was now released into the liquid phase.
as §1
The 10% α-GPAC and 10% TOPR in TOAC glasses and the 50:50 molar ratio TOAC:α-GPAC glass were also immersed in water to examine their rate of devitrification in liquid water rather than humid air.

[7] = Stability, recovery and release of XPDO from HDC glass (HPLC); assay type: physicochemical
Protocol: Release characteristics of the vitreous HDC solid dose delivery systems were studied by monitoring the release of MB9 from TOAC/XPDO glasses as shown in FIG. 15. For analysis of stability of active in the vitreous HDC solid dose delivery systems, XPDO was recovered from the samples by dissolving the glass in acetonitrile and analyzing by HPLC. There was full recovery of the guest substance even after storage at 45° C. for 4 weeks.
For analysis XPDO was extracted from the spray-dried powder by dissolving the powder in acetonitrile and then diluting the acetonitrile with sodium phosphate buffer prior to analysis by HPLC. Samples were set up to test stability of XPDO in the spray dried formulations at 45° C. and stored over saturated Zinc sulphate (RH 80-85%).
For release into sodium phosphate buffer, 0.0868 g of the spray dried powder was shaken in 10 mls of the buffer for 1 minute. The suspension was then filtered through a 0.2 μm filter. […] Bioavailability of the steroid from the delivery system was tested by immersion in an aqueous solution for a short time. Stability of the steroid in the spray-dried formulation was tested at high humidity and 45° C. (both factors are important if the application as an inhalable powder is to be successful). The results indicated a resistance to high humidity, stability in the glass and ready bioavailability in vitro tests.

Compound: CC(C)Oc1cc(-n2nc(C(C)(C)C)oc2=O)c(Cl)cc1Cl [Oxadiazon]
- amount dissolved in the melt of the glass [1]: about 15 % w/w

- recrystallization of glass on storage ([2]; TOAC glass from DCM on slides, room temperature, 50-60% relative humidity): gradually recrystallized over 1 month
- Initial Form ([2]; mixed HDC glasses (Table 6)): Glass
- After RH 24 hr ([2]; mixed HDC glasses exposed to high RH (75% to 95%) at RT, 24 hr): Cryst + + + +
- Tg ([3]; glass quenched from melt, DSC, heating rate 10°/min, nitrogen): Tg = 50.1 °C
- Tg/° C. ([3]; single HDC glasses (Table 1)): 50 °C
- Tg/° C. ([3]; single and composite HDC glasses, mole ratios of HDCs in glass (Table 2)): 50 °C
- period of linear release of MB9 dye ([5]; TOAC glass discs 6 mm×2.5 mm, MB9 2 wt %, PBS, 25° C., FIG. 8): 55 days
- MB9 release characteristics ([5]; TOAC glass, MB9 dye): zero-order release characteristics
Compound: CC(=O)OCC1OC(OC2OC(COC(C)=O)C(OC(C)=O)C(OC(C)=O)C2OC(C)=O)C(OC(C)=O)C(OC(C)=O)C1OC(C)=O (stereo not drawn) [TOAC, trehalose octaacetate]
- devitrification at RH from 75% to 95% ([2]; thin glass films and quenched disks, RT, overnight exposure): very susceptible to devitrification at high RH; also recorded: crystallized at all RHs from 75% to 95%
- cell division [4]: normal
- toxic effects [4]: No toxic effects were observed

- Tg/° C. ([3]; single HDC glasses (Table 1)): −6 °C
- melting point: 100 to 104 °C
Compound: CC(=O)OC[C@H](OC(C)=O)[C@@H](OC(C)=O)[C@H](OC(C)=O)[C@@H](COC(C)=O)OC(C)=O [SHAC, sorbitol hexaacetate]

- change in glass structure such as recrystallization ([2]; guest in TOAC glass from DCM, stored at RH of 75%, 81%, 90% and 95% for 4 weeks): no change in glass structure
- Tg ([3]; spray dried amorphous powder, XPDO incorporated at 20 wt %): 46 °C
- time to release of guest substance when added to liquid water ([6]; 10% (w/v) guest in HDC glass): 5 to 10 min
- time to surface recrystallization after immersion in water ([6]; glass immersed in liquid water): 15 to 30 min
- degradation on HPLC analysis ([7]; spray dried glass powder, 4 weeks storage at 45° C. and 85% RH): No evidence of any degradation
Compound: CCCC1OC2CC3C4CC(F)C5=CC(=O)CCC5(C)C4(F)C(O)CC3(C)C2(C(=O)CO)O1 (stereo not drawn) [XPDO, 6α,9α-difluoro-11β,21-dihydroxy-16α,17α-propyl methylene dioxy-4-pregnene-3,20-dione]
- HDC glass stability at high relative humidity ([2]; 10% (w/v) guest in HDC (TOAC) glass, RH up to 95%, room temperature): stable when exposed to relative humidities of up to 95% at room temperature for over a month
- release into sodium phosphate buffer ([7]; spray dried powder shaken in buffer for 1 minute, filtered, HPLC): effectively being released into aqueous solution
